# Laboratory results from paper PMC2443152, “Molecular evolution of B6 enzymes: Binding of pyridoxal-5'-phosphate and Lys41Arg substitution turn ribonuclease A into a model B6 protoenzyme” (BMC Biochemistry, 2008).
# Substitutions are numbered along the chain they refer to. Where two headings read alike, the source gives them in different places.
# What was measured:
# [1] = target: T1, bovine pancreatic ribonuclease A (RNase) (Bos taurus, UniProt P61823); assay: intrinsic (tyrosine) fluorescence quenching titration, nonlinear regression; format: binding; conditions: read-out: Wild-type
# T1 construct: gene RNASE1; mature RNase A; recombinant from pET22b(+) NdeI/HindIII in E. coli BL21 (wild type also from bovine pancreas, Sigma type II); no tag mentioned
# T1 sequence (P61823 27-150): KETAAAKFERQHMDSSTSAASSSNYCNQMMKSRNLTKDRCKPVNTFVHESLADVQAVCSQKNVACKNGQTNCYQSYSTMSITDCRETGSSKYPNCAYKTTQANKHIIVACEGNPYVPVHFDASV
# Source text: (§1) intrinsic (tyrosine) fluorescence quenching titration, nonlinear regression on bovine pancreatic ribonuclease A (RNase)
# [2] = target: T2, bovine pancreatic ribonuclease A (RNase) (Bos taurus, UniProt P61823, K67R); assay: as above; format: binding
# T2 construct: gene RNASE1; mature RNase A; recombinant from pET22b(+) NdeI/HindIII in E. coli BL21 (wild type also from bovine pancreas, Sigma type II); no tag mentioned
# T2 sequence (P61823 27-150 K67R): T1 sequence (P61823 27-150) with K41R
# Source text: as §1
Structure (SMILES),Kd [1] [µM],Kd ([2]; read-out: K41R) [µM],Kd ([2]; read-out: Wild-type) [µM]
Cc1ncc(COP(=O)(O)O)c(CN[C@H](C)C(=O)O)c1O [PPL-D-alanine],45 ± 1,40 ± 3,
Cc1ncc(COP(=O)(O)O)c(C=O)c1O [PLP],120 ± 5,140 ± 10,
Cc1ncc(COP(=O)(O)O)c(CN[C@@H](C)C(=O)O)c1O [PPL-L-alanine],23 ± 1,,23 ± 1
Cc1ncc(COP(=O)(O)O)c(CN)c1O [PMP],106 ± 5,107 ± 3,
